Measurements: patent US4264625A, “Pesticidal unsymmetrical bis-arylcarbamate sulfide compounds” (Union Carbide Corporation, priority 1978, dated 1981)

What was measured:
Format in all cases: in vivo
[1] = system: bean aphid (Aphis fabae Scop.); assay: Bean Aphid Foliage Spray Test; design: key: A: excellent control; B: partial control; C: no control; settings: 500 ppm foliage spray, 24 hours, mortality rating
Description: (§1) Suspensions of the test compounds were prepared by dissolving one gram of compound in 50 milliliters of acetone in which had been dissolved 0.1 gram (10 percent of the weight of compound) of an alkylphenoxy polyethoxyethanol surfactant, as an emulsifying or dispersing agent. The resulting solution was mixed into 150 milliliters of water to give roughly 200 milliliters of a suspension containing the compound in finely divided form. The thus-prepared stock suspension contained 0.5 percent by weight of compound. The test concentrations in parts per million by weight employed in the tests described hereinbelow were obtained by appropriate dilutions of the stock suspension with water. The test procedures were as follows:
Bean Aphid Foliage Spray Test
Adults and nymphal stages of the bean aphid (Aphis fabae Scop.) reared on potted dwarf nasturtium plants at 65°-70° F. and 50-70 percent relative humidity, constituted the test insects. For testing purposes, the number of aphids per pot was standardized to 100-150 by trimming plants containing excess aphids.
The test compounds were formulated by diluting the stock suspension with water to give a suspension containing 500 parts of test compound per million parts of final formulation.
The potted plants (one pot per compound tested) infested with 100-150 aphids, were placed on a revolving turntable and sprayed with 100-110 milliliters of test compound formulation by use of a DeVilbiss spray gun set at 40 psig. air pressure. This application, which lasted 25 seconds, was sufficient to wet the plants to run-off. As a control, 100-110 milliliters of a water-acetone-emulsifier solution containing no test compound were also sprayed on infested plants. After spraying, the pots were placed on their sides on a sheet of white standard mimeograph paper which had been previously ruled to facilitate counting. Temperature and humidity in the test room during the 24 hour holding period were 65°-70° F. and 50-70 percent, respectively. Aphids which fell onto the paper and were unable to remain standing after being uprighted were considered dead. Aphids remaining on the plants were observed closely for movement and those which were unable to move the length of the body upon stimulation by prodding were considered dead. Percent mortality was recorded for various concentration levels.
(§2) In these tests the pesticidal activity of the compounds against aphid, mite, Southern Armyworm, Bean Beetle and house fly was rated as follows: […]

[2] = system: two-spotted mite (Tetranychus urticae Koch); assay: Mite Foliage Spray Test; design: key: A: excellent control; B: partial control; C: no control; settings: 500 ppm foliage spray, six days, mortality rating
Description: as §1
Adults and nymphal stages of the two-spotted mite (Tetranychus urticae Koch), reared on Tendergreen bean plants at 80±5 percent relative humidity, were the test organisms. Infested leaves from a stock culture were placed on the primary leaves of two bean plants six to eight inches in height, growing in a two-and-a-half inch clay pot. 150-200 Mites, a sufficient number for testing, transferred from the excised leaves to the fresh plants in a period of twenty four hours. Following the twenty four hour transfer period, the excised leaves were removed from the infested plants. The test compounds were formulated by diluting the stock suspension with water to give a suspension containing 500 parts of test compound per million parts of final formulation. The potted plants (one pot per compound) were placed on a revolving turntable and sprayed with 100-110 milliliters of test compound formulation by use of a DeVilbiss spray gun set at 40 psig. air pressure. This application, which lasted 25 seconds, was sufficient to wet the plants to run-off. As a control, 100-110 milliliters of a water solution containing acetone and emulsifier in the same concentrations as the test compound formulation, but containing no test compound, were also sprayed on infested plants. The sprayed plants were held at 80±5 percent relative humidity for six days, after which a mortality count of motile forms was made. Microscopic examination for motile forms was made on the leaves of the test plants. Any individual which was capable of locomotion upon prodding was considered living.
as §2

[3] = system: southern armyworm (Prodenia eridania, (Cram.)); assay: Southern Armyworm Leaf Spray Test; design: key: A: excellent control; B: partial control; C: no control; settings: 500 ppm leaf spray, larvae, three days, mortality rating
Description: as §1
Southern Armyworm Leaf Spray Test
Larvae of the southern armyworm (Prodenia eridania, (Cram.)), reared on Tendergreen bean plants at a temperature of 80°±5° F. and a relative humidity of 50±5 percent, constituted the test insects.
The test compounds were formulated by diluting the stock suspension with water to give a suspension containing 500 parts of test compound per million parts of final formulation. Potted Tendergreen bean plants of standard height and age were placed on a revolving turntable and sprayed with 100-110 milliliters of test compound formulation by use of a DeVilbiss spray gun set at 10 psig air pressure. This application, which lasted 25 seconds, was sufficient to wet plants to run-off. As a control, 100-110 milliliters of a water-acetone-emulsifier solution containing no test compound were also sprayed on infested plants. When dry, the paired leaves were separated and each one was placed in a 9 centimeter Petri dish lined with moistened filter paper. Five randomly selected larvae were introduced into each dish and the dishes were closed. The closed dishes were labeled and held at 80°-85° F. for three days. Although the larvae could easily consume the whole leaf within twenty-four hours, no more food was added. Larvae which were unable to move the length of the body, even upon stimulation by prodding, were considered dead. Percent mortality was recorded for various concentration levels.
as §2

[4] = system: Mexican bean beetle (Epilachna varivestis, Muls.); assay: Mexican Bean Beetle Leaf Spray Test; design: key: A: excellent control; B: partial control; C: no control; settings: 500 ppm leaf spray, fourth instar larvae, three days, mortality rating
Description: as §1
Mexican Bean Beetle Leaf Spray Test
Fourth instar larvae of the Mexican bean beetle (Epilachna varivestis, Muls.), reared on Tendergreen bean plants at a temperature of 80°±5° F. and 50±5 percent relative humidity, were the test insects.
The test compounds were formulated by diluting the stock suspension with water to give a suspension containing 500 parts of test compound per million parts of final formulation. Potted Tendergreen bean plants of standard height and age were placed on a revolving turntable and sprayed with 100-110 milliliters of test compound formulation by use of a DeVilbiss spray gun set at 10 psig air pressure. This application, which lasted 25 seconds, was sufficient to wet plants to run-off. As a control, 100-110 milliliters of a water-acetone-emulsifier solution containing no test compound were also sprayed on infested plants. When dry, the paired leaves were separated and each was placed in a 9 centimeter Petri dish lined with moistened filter paper. Five randomly selected larvae were introduced into each dish, and the dishes were closed. The closed dishes were labeled and held at a temperature of 80°±5° F. for three days. Although the larvae could easily consume the leaf within 24 to 48 hours, no more food was added. Larvae which were unable to move the length of the body, even upon stimulation, were considered dead.
as §2

[5] = system: house flies (Musca domestica, L.); assay: Fly Bait Test; design: key: A: excellent control; B: partial control; C: no control; settings: 500 ppm in sugar-solution bait, 24 hours, mortality rating
Description: as §1
Four to six day old adult house flies (Musca domestica, L.) reared according to the specifications of the Chemical Specialties Manufacturing Association (Blue Book, McNair-Dorland Co., N.Y. 1954; pages 243-244, 261) under controlled conditions of 80°±5° F. and 50±5 percent relative humidity, were the test insects. The flies were immobilized by anesthetizing with carbon dioxide and twenty five immobilized individuals, males and females, were transferred to a cage consisting of a standard food strainer about five inches in diameter which was inverted over a wrapping-paper-covered surface. The test compounds were formulated by diluting the stock suspension with a 10 percent (by weight) sugar solution to give a suspension containing 500 parts of test compound per million parts of final formulation, by weight. Ten milliliters of the test formulation were added to a souffle cup containing a one-inch square of an absorbent cotton pad. This bait cup was introduced and centered on the blotting paper under the food strainer prior to admitting the anesthetized flies. The caged flies were allowed to feed on the bait for twenty four hours, at a temperature of 80°±5° F. and the relative humidity of 50±5 percent.
as §2

[6] = system: Bean; settings: 2500 ppm spray, ten days, rating 1-5
Description: (§3) POST-EMERGENT HERBICIDAL TEST
(§4) Experiments were also conducted to determine the phytotoxicity of representative compositions with respect to healthy fresh plants. Solutions of the compounds were prepared as described above to provide a concentration of 2500 parts per million of the test compound. The test plants were sprayed in accordance with the procedure described above for the Mite Foliage Spray Test so as to deliver approximately 100 milliliters of test solution to the leaves of each plant tested. The sprayed plants and controls were set aside for approximately one hour to allow the solutions to dry and were then placed in the greenhouse. After ten days the plants were visually inspected to determine the extent of foliage injury. A rating of 1 indicates no perceptible injury; 5 indicates the plant was dead and ratings of 2, 3 and 4 indicate intermediate degrees of injury based upon the number and extent to which leaves were injured.

[7] = system: Corn; settings: 2500 ppm spray, ten days, rating 1-5
Description: as §3, §4

[8] = system: Cotton; settings: 2500 ppm spray, ten days, rating 1-5
Description: as §3, §4

[9] = system: Soybean; settings: 2500 ppm spray, ten days, rating 1-5
Description: as §3, §4

[10] = system: Tomato; settings: 2500 ppm spray, ten days, rating 1-5
Description: as §3, §4

With Cc1cc(OC(=O)N(C)SN(C)C(=O)Oc2ccc(N=CN(C)C)c(C)c2)ccc1N=CN(C)C [drawing 41] the “Pesticidal Activity, Aphid” value [1] was “A”, the “Pesticidal Activity, Mite” value [2] was “A” and the “Pesticidal Activity, Southern Armyworm” value [3] was “A”. The “Pesticidal Activity, Mexican Bean Beetle” value [4] was “A”, the “Pesticidal Activity, House fly” value [5] was “A” and the “Phytotoxicity, Bean” value [6] was 1. The “Phytotoxicity, Corn” value [7] was 1, the “Phytotoxicity, Cotton” value [8] was 1 and the “Phytotoxicity, Soybean” value [9] was 2. For the same compound, the “Phytotoxicity, Tomato” value [10] was 1.
